Among the data in patent US9309224B2 (Deciphera Pharmaceuticals, LLC, priority 2013, dated 2016) are IC50 and lesion score values, retold here.

In assay [1] the target is T1, phospho-FMS in THP-1 cells (Homo sapiens, UniProt P07333).
T1 construct: endogenous in cells; host or cells: THP-1 (ATCC TIB-202)
The assay can be described thus: Phospho-FMS ELISA assay in THP-1 cells. It is filed as cell-based. The following applies: 4 hours compound, M-CSF stimulated; read-out: pFMS inhibition in THP-1 cells. On the technique in general: An ELISA detects its analyte on a solid surface through an enzyme-linked reagent.

Assay [2] addresses T2, unphosphorylated c-FMS kinase (uFMS, Seq. ID no. 1) (Homo sapiens, UniProt P07333).
T2 construct: purchased Millipore
T2 sequence (P07333 538-972): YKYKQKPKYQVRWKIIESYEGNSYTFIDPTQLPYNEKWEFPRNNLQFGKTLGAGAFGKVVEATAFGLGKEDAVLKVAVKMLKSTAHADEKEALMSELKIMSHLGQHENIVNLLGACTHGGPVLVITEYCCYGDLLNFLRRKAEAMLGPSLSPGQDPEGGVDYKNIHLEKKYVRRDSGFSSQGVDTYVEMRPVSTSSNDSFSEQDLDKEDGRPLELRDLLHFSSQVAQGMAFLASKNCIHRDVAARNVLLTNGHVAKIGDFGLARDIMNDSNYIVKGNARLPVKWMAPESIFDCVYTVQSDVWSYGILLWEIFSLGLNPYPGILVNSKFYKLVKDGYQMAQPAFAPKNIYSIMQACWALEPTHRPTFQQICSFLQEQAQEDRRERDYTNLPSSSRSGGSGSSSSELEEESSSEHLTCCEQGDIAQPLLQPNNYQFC
Kind of assay: uFMS kinase assay (pyruvate kinase/lactate dehydrogenase coupled). It is filed as biochemical. The following applies: ATP 500 μM.

The subject of a further assay is PC-3 M-luc cells. Kind of assay: PC-3 peritibial implant model of cancer bone metastasis. The class given is in vivo, mouse. The settings on record: oral gavage twice daily; score 0-4; vehicle-treated animals score 4. The source says:
PC-3 Peritibial Implant Model of Cancer Bone Metastasis To evaluate in vivo anti-cancer activity of compounds of formula I, the PC-3 M-luc peritibial injection model of bone invasiveness model was employed. Briefly, PC-3 M-luc cells were obtained from Xenogen Corporation (Caliper Life Sciences) and expanded using MEM media modified with L-Glutamine (Cell Gro® #10-045-CV) supplemented with 10% fetal bovine serum, 1% penicillin-streptomycin-glutamine, 1% non-essential amino acids, and 1% MEM vitamins in 5% CO2 atmosphere at 37° C. Six to 7 week old male nude mice (Crl:NU-Foxn1nu) were obtained from Charles River Laboratories. Test mice were implanted peritibially on Day 0 with 1×10^6 cells/mouse (0.1 mL) using an insulin syringe with a fixed 28-gauge needle. The needle was inserted at the ankle between the tibia and fibula until the bevel of the needle reaches approximately half way between the knee and ankle Treatments began on Day 0. Animals were dosed by oral gavage twice daily for the study duration. All procedures carried out in this experiment were conducted in compliance with all the laws, regulations and guidelines of the National Institutes of Health (NIH). […] Lesions in the right hind limb were scored with values of 0, 1, 2, 3, or 4 based on a qualitative assessment of lesion size as defined by: 0: Normal Bone 1: Minimal lesions. […]

T1 sequence (P07333 20-972): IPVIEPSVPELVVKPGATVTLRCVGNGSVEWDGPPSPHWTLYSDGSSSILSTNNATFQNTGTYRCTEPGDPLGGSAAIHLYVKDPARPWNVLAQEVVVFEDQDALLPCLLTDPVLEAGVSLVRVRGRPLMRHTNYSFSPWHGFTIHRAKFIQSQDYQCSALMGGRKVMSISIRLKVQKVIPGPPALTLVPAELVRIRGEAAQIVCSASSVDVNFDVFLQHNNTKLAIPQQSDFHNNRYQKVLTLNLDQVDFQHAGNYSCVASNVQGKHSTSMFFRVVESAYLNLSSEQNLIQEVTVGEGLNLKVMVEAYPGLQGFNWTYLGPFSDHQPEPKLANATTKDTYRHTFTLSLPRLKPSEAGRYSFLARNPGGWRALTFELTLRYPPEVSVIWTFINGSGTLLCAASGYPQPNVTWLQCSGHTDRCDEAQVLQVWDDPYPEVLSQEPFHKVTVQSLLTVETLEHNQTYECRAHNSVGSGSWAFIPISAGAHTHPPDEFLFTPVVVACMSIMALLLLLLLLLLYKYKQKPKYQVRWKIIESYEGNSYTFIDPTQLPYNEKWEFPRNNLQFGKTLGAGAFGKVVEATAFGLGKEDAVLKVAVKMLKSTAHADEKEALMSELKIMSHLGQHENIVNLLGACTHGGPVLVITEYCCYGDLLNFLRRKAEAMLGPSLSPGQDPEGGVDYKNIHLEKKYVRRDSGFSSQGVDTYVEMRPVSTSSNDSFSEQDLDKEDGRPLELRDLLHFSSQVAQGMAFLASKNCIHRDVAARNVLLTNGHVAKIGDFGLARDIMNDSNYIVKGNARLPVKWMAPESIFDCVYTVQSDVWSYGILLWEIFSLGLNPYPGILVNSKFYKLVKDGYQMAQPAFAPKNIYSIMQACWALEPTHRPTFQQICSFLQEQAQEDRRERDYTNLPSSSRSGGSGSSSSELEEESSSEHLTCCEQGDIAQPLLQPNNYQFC

For `CN1CCN(C(=O)Nc2cc(Oc3ccc(NC(=O)NC(=O)C(C)(C)C)nc3)ccn2)CC1` [Example 45, 4-methyl-N-(4-((6-(3-pivaloylureido)pyridin-3-yl)oxy)pyridin-2-yl)piperazine-1-carboxamide], the IC50 in assay [1] and in assay [2] was under 10 nM throughout. This molecule also had a lesion score in the assay on PC-3 M-luc cells of 3.
